Molecules are shown by their SMILES.

For the experiment, the system named is Bacillus cereus strain Bc 407. The experiment in a line: Molecule capacity to inhibit bacterial growth in the presence of artificially produced nitric oxide (cfu plating). The format is cell-based. As to the method:
Bacteria (Bacillus cereus strain Bc 407) were grown in LB medium until mid exponential growth phase at 37° C. with shaking. Cultures were then diluted to 10^4 cfu/ml in PBS (Phosphate Buffered Saline, Sigma). The molecules to be tested (potential Mfd inhibitors) are added at a concentration of 0 to 1 mM to the bacteria and the bacteria+inhibitors are incubated at room temperature for 1 h without agitation.
Bacteria were then exposed directly to chemically generated NO+ in a cell-free system as described by Miyagi et al. (Miyagi et al., 1997) with modifications. Briefly, 10^4 bacterial cfu (+various concentrations of potential Mfd inhibitors) are incubated in RPMI-1640 medium (Invitrogen) at acidic pH (pH 5.4) either in the absence or in the presence of 1.5 mM sodium nitrite (Walco Pure Chemical Industries Ltd) at 37° C. for 1 h under shaking; under these acidic conditions, NO+ is generated from the sodium nitrite by a chemical reaction (Miyagi et al., 1997).
The bacteria are harvested and plated on agar plates to evaluate bacterial survival. The cfu obtained without nitric oxide stress gives the toxicity value whereas the cfu obtained following nitric oxide stress gives the inhibitor efficacy value. Using this cell free assay, the inhibitor concentration required to decrease by 50% the survival rate of the bacteria (IC50) in the presence of nitric oxide stress compared to untreated bacteria is calculated using the GraphPad PRISM software (version 6.0, GraphPad Software, San Diego, Calif.) with non-linear regression.

For `CN1CC(=O)N2[C@H](c3ccc4c(c3)OCO4)c3[nH]c4ccccc4c3C[C@@H]2C1=O` [tadalafil, (6R-trans)-6-(1,3-benzodioxol-5-yl)-2,3,6,7,12,12a-hexahydro-2-methyl-pyrazino[1′,2′:1,6]pyrido[3,4-b]indole-1,4-dione], under “1.5 mM sodium nitrite, pH 5.4, 37° C., 1 h, mean of two experiments, read-out: IC50 (concentration required to decrease by 50% the survival rate of the bacteria in the presence of nitric oxide stress compared to untreated bacteria)”, the IC50 amounted to 98.7 µM. In addition, for the setting “with NO stress, at 100 μM”, the “activity on B. cereus survival with nitric oxide (NO) stress” value is on record as “activity”. Also, the “activity on B. cereus survival without stress (toxicity)” value (without nitric oxide stress, until 100 μM) is listed as “weak activity”.

Values taken from patent US10865435B2, “Method of screening antibacterial compounds as inhibitor of Mfd” (INSTITUT NATIONAL DE LA RECHERCHE AGRONOMIQUE, priority 2016, dated 2020).
